Source: patent publication US12630548B2, “Azetidine derivatives for the treatment of integrin associated diseases” (The University of Nottingham, priority 2020, dated 2026)

Molecular target: ανβ6 (Homo sapiens, UniProt P06756+P18564)
Test: Cell adhesion assay, αvβ6 integrin
Format: cell-based
Settings: cell adhesion data; read-out: ανβ6 IC50
Experimental: The assays were performed as described in the literature (P. A. Procopiou, N. A. Anderson, J. Barrett, T. N. Barrett, M. H. J. Crawford, B. J. Fallon, A. P. Hancock, J. Le, S. Lemma, R. P. Marshall, J. Morrell, J. M. Pritchard, J. E. Rowedder, P. Saklatvala, R. J. Slack, S. L. Sollis, C. J. Suckling, L. R. Thorp, G. Vitulli, et al., J. Med. Chem. 2018, 61, 8417-8443; S. B. Ludbrook, S. T. Barry, C. J. Delves, C. M. T. Horgan, Biochem. J. 2003, 369, 311-318).

ανβ6, sequence (P06756 31-889 limits assumed): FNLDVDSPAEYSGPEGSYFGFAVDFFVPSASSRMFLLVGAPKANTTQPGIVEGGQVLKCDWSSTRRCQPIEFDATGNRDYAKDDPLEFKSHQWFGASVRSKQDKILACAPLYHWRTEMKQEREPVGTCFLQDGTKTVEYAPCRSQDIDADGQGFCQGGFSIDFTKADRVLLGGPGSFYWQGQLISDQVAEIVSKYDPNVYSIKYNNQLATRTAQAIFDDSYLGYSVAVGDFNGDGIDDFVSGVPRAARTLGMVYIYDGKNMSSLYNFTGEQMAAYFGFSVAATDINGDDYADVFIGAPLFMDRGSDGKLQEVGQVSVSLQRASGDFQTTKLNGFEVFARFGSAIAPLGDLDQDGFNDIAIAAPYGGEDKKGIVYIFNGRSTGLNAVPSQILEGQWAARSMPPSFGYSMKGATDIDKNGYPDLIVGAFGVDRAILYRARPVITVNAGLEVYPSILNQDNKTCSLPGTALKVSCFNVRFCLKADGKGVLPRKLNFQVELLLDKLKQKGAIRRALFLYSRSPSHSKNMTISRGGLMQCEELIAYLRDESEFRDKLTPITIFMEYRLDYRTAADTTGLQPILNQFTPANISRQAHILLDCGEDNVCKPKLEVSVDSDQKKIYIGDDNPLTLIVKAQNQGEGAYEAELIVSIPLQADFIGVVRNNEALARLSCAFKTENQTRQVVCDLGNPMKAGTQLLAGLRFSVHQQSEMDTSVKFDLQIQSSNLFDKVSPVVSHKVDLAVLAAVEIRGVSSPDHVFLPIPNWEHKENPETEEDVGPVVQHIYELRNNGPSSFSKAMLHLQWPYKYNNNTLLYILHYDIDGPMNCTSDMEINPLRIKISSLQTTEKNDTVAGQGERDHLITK
ανβ6, sequence (P06756 891-1048 limits assumed): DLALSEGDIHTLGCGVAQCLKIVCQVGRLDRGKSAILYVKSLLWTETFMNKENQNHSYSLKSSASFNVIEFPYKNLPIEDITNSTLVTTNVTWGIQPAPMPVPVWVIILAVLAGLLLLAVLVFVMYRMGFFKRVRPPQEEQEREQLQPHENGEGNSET
ανβ6, sequence (P18564 22-788): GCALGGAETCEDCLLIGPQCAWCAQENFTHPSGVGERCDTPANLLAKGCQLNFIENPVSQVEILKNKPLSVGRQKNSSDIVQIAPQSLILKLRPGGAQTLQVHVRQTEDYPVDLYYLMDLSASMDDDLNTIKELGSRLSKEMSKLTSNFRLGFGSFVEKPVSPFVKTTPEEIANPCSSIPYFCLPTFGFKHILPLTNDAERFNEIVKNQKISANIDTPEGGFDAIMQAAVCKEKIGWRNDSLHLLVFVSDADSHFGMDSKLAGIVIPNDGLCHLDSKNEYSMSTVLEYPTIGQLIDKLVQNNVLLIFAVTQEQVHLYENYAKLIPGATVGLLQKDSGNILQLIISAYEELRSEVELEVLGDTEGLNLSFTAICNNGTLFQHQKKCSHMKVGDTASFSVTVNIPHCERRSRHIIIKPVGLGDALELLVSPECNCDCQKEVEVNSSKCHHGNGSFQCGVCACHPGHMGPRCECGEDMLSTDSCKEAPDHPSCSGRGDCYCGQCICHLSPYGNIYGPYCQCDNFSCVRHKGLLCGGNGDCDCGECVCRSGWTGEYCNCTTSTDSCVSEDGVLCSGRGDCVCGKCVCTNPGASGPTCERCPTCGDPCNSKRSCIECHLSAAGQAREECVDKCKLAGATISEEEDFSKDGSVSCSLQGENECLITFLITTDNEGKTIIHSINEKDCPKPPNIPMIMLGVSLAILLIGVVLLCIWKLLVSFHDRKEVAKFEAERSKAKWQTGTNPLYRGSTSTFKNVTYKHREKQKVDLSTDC

SMILES | IC50 [nM]
Cc1ccc(S(=O)(=O)N2CC(C(=O)NC(CNC(=O)CCCCc3ccc4c(n3)NCCC4)C(=O)O)C2)cc1 (racemic) [Example 1, 3-(5-(5,6,7,8-tetrahydro-1,8-naphthyridin-2-yl)pentanamido)-2-(1-(4-methylbenzenesulfonyl)azetidine-3-carboxamido)propanoic acid] | < 250
O=C(CCCCc1ccc2c(n1)NCCC2)NCC(NC(=O)C1CN(S(=O)(=O)c2cccc(F)c2)C1)C(=O)O (racemic) [Example 5, 2-(1-(3-fluorobenzenesulfonyl)azetidine-3-carboxamido)-3-(5-(5,6,7,8-tetrahydro-1,8-naphthyridin-2-yl)pentanamido)propanoic acid] | < 250
CCC1(C(=O)NC(CNC(=O)CCCCc2ccc3c(n2)NCCC3)C(=O)O)CN(S(=O)(=O)c2cccc(C)c2)C1 (racemic) [Example 16, 2-(3-ethyl-1-(3-methylbenzenesulfonyl)azetidine-3-carboxamido)-3-(5-(5,6,7,8-tetrahydro-1,8-naphthyridin-2-yl)pentanamido)propanoic acid] | < 250
O=C(CCCCc1ccc2c(n1)NCCC2)NCC(NC(=O)C1CN(S(=O)(=O)c2cccc(OC(F)(F)F)c2)C1)C(=O)O (racemic) [Example 8, 3-(5-(5,6,7,8-tetrahydro-1,8-naphthyridin-2-yl)pentanamido)-2-(1-(3-(trifluoromethoxy)benzenesulfonyl)azetidine-3-carboxamido)propanoic acid] | < 250
Cn1cc(S(=O)(=O)N2CC(C(=O)NC(CNC(=O)CCCCc3ccc4c(n3)NCCC4)C(=O)O)C2)cn1 (racemic) [Example 19, 2-(1-((1-methyl-1H-pyrazol-4-yl)sulfonyl)azetidine-3-carboxamido)-3-(5-(5,6,7,8-tetrahydro-1,8-naphthyridin-2-yl)pentanamido)propanoic acid] | < 250
Cc1cccc(S(=O)(=O)N2CC(F)(C(=O)NC(CNC(=O)CCCCc3ccc4c(n3)NCCC4)C(=O)O)C2)c1 (racemic) [Example 17, 2-(3-fluoro-1-(3-methylbenzenesulfonyl)azetidine-3-carboxamido)-3-(5-(5,6,7,8-tetrahydro-1,8-naphthyridin-2-yl)pentanamido)propanoic acid] | < 250
O=C(CCCCc1ccc2c(n1)NCCC2)NC[C@H](NC(=O)C1CN(S(=O)(=O)c2cccc(C3CC3)c2)C1)C(=O)O [Example 30, (S)-2-(1-(3-Cyclopropylbenzenesulfonyl)azetidine-3-carboxamido)-3-(5-(5,6,7,8-tetrahydro-1,8-naphthyridin-2-yl)pentanamido)propanoic acid] | < 250
O=C(CCCCc1ccc2c(n1)NCCC2)NCC(NC(=O)C1CN(S(=O)(=O)c2ccccc2)C1)C(=O)O (racemic) [Example 9, 2-(1-(phenylsulfonyl)azetidine-3-carboxamido)-3-(5-(5,6,7,8-tetrahydro-1,8-naphthyridin-2-yl)pentanamido)propanoic acid] | < 250
Cc1ccc(S(=O)(=O)N2CC(C(=O)N[C@@H](CCN(C)CCCCc3ccc4c(n3)NCCC4)C(=O)O)C2)cc1 [Example 40, (S)-4-(Methyl(4-(5,6,7,8-tetrahydro-1,8-naphthyridin-2-yl)butyl)amino)-2-(4-methylbenzenesulfonylazetidine-3-carboxamido)butanoic acid] | < 250
COc1ccc(S(=O)(=O)N2CC(C(=O)N[C@@H](CNC(=O)CCCCc3ccc4c(n3)NCCC4)C(=O)O)C2)cc1OC [Example 32, (S)-2-(1-(3,4-Dimethoxybenzenesulfonyl)azetidine-3-carboxamido)-3-(5-(5,6,7,8-tetrahydro-1,8-naphthyridin-2-yl)pentanamido)propanoic acid] | < 250
CN(CCCCc1ccc2c(n1)NCCC2)CC[C@H](NC(=O)C1CN(S(=O)(=O)c2cccc(Cl)c2)C1)C(=O)O [Example 39, (S)-2-(1-((3-chlorophenyl)sulfonyl)azetidine-3-carboxamido)-4-(methyl(4-(5,6,7,8-tetrahydro-1,8-naphthyridin-2-yl)butyl)amino)butanoic acid] | < 250
O=C(CCCCc1ccc2c(n1)NCCC2)NCC(NC(=O)C1CN(S(=O)(=O)c2ccc(Cl)s2)C1)C(=O)O (racemic) [Example 20, 2-(1-((5-chlorothiophen-2-yl)sulfonyl)azetidine-3-carboxamido)-3-(5-(5,6,7,8-tetrahydro-1,8-naphthyridin-2-yl)pentanamido)propanoic acid] | < 250
Cc1cc(C)cc(S(=O)(=O)N2CC(C(=O)N[C@@H](CNC(=O)CCCCc3ccc4c(n3)NCCC4)C(=O)O)C2)c1 [Example 24, (S)-2-(1-(3,5-Dimethylbenzenesulfonyl)azetidine-3-carboxamido)-3-(5-(5,6,7,8-tetrahydro-1,8-naphthyridin-2-yl)pentanamido)propanoic acid] | < 250
O=C(CCCCc1ccc2c(n1)NCCC2)NC[C@H](NC(=O)C1CN(S(=O)(=O)c2cc(Cl)cc(Cl)c2)C1)C(=O)O [Example 23, (S)-2-(1-(3,5-Dichlorobenzenesulfonyl)azetidine-3-carboxamido)-3-(5-(5,6,7,8-tetrahydro-1,8-naphthyridin-2-yl)pentanamido)propanoic acid] | < 250
Cc1cccc(S(=O)(=O)N2CC(C(=O)N[C@@H](CC(=O)NCCCCc3ccc4c(n3)NCCC4)C(=O)O)C2)c1 [Example 36, N4-(4-(5,6,7,8-Tetrahydro-1,8-naphthyridin-2-yl)butyl)-N2-(1-(3-methylbenzenesulfonyl)azetidine-3-carbonyl)-L-asparagine] | < 250
Cc1cccc(S(=O)(=O)N2CC(C(=O)N[C@@H](CCN(C)CCCCc3ccc4c(n3)NCCC4)C(=O)O)C2)c1 [Example 37, (S)-4-(Methyl(4-(5,6,7,8-tetrahydro-1,8-naphthyridin-2-yl)butyl)amino)-2-(1-(3-methylbenzenesulfonyl)azetidine-3-carboxamido)butanoic acid] | < 250
Cc1cccc(S(=O)(=O)N2CC(C(=O)NC(CNC(=O)CCCCc3ccc4c(n3)NCCC4)C(=O)O)C2)c1 (racemic) [Example 4, 3-(5-(5,6,7,8-tetrahydro-1,8-naphthyridin-2-yl)pentanamido)-2-(1-(3-methylbenzenesulfonyl)azetidine-3-carboxamido)propanoic acid] | < 250
O=C(CCCCc1ccc2c(n1)NCCC2)NCC(NC(=O)C1CN(S(=O)(=O)c2cccc(C(F)(F)F)c2)C1)C(=O)O (racemic) [Example 7, 3-(5-(5,6,7,8-tetrahydro-1,8-naphthyridin-2-yl)pentanamido)-2-(1-(3-(trifluoromethyl)benzenesulfonyl)azetidine-3-carboxamido)propanoic acid] | < 250
O=C(CCCCc1ccc2c(n1)NCCC2)NCC(NC(=O)C1CN(S(=O)(=O)c2ccc(F)cc2)C1)C(=O)O (racemic) [Example 2, 2-(1-(4-fluorobenzenesulfonyl)azetidine-3-carboxamido)-3-(5-(5,6,7,8-tetrahydro-1,8-naphthyridin-2-yl)pentanamido)propanoic acid] | < 250
CS(=O)(=O)c1cccc(S(=O)(=O)N2CC(C(=O)NC(CNC(=O)CCCCc3ccc4c(n3)NCCC4)C(=O)O)C2)c1 (racemic) [Example 12] | < 250
Cc1cccc(S(=O)(=O)N2CC(C)(C(=O)NC(CNC(=O)CCCCc3ccc4c(n3)NCCC4)C(=O)O)C2)c1 (racemic) [Example 15, 2-(3-methyl-1-(3-methylbenzenesulfonyl)azetidine-3-carboxamido)-3-(5-(5,6,7,8-tetrahydro-1,8-naphthyridin-2-yl)pentanamido)propanoic acid] | < 250
O=C(CCCCc1ccc2c(n1)NCCC2)NCC(NC(=O)C1CN(S(=O)(=O)c2cccnc2)C1)C(=O)O (racemic) [Example 21, 2-(1-(pyridin-3-ylsulfonyl)azetidine-3-carboxamido)-3-(5-(5,6,7,8-tetrahydro-1,8-naphthyridin-2-yl)pentanamido)propanoic acid] | < 250
Cc1cc(C)cc(S(=O)(=O)N2CC(C(=O)NC(CNC(=O)CCCCc3ccc4c(n3)NCCC4)C(=O)O)C2)c1 (racemic) [Example 11, 2-(1-(3,5-dimethylbenzenesulfonyl)azetidine-3-carboxamido)-3-(5-(5,6,7,8-tetrahydro-1,8-naphthyridin-2-yl)pentanamido)propanoic acid] | < 250
O=C(CCCCc1ccc2c(n1)NCCC2)NC[C@H](NC(=O)C1CN(S(=O)(=O)c2cccc(N3CCNCC3)c2)C1)C(=O)O [Example 34, (S)-2-(1-(3-(Piperazin-1-yl)benzenesulfonyl)azetidine-3-carboxamido)-3-(5-(5,6,7,8-tetrahydro-1,8-naphthyridin-2-yl)pentanamido)propanoic acid] | < 250
Cc1cc(Cl)cc(S(=O)(=O)N2CC(C(=O)N[C@@H](CNC(=O)CCCCc3ccc4c(n3)NCCC4)C(=O)O)C2)c1 [Example 25, (S)-2-(1-(3-Chloro-5-methylbenzenesulfonyl)azetidine-3-carboxamido)-3-(5-(5,6,7,8-tetrahydro-1,8-naphthyridin-2-yl)pentanamido)propanoic acid] | < 250
O=C(CCCCc1ccc2c(n1)NCCC2)NC[C@H](NC(=O)C1CN(S(=O)(=O)c2cccc(C3=CCOCC3)c2)C1)C(=O)O [Example 33] | < 250
CN(CCCCc1ccc2c(n1)NCCC2)CC[C@H](NC(=O)C1CN(S(=O)(=O)c2ccccc2)C1)C(=O)O [Example 38, (S)-4-(Methyl(4-(5,6,7,8-tetrahydro-1,8-naphthyridin-2-yl)butyl)amino)-2-(1-(phenylsulfonyl)azetidine-3-carboxamido)butanoic acid] | < 250
